Data on 11 compounds can be found in ChEMBL document CHEMBL1201862, “PubChem BioAssay data set” (2004).

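Dose response: 5 concentrations. Exposure: 48 h. Format: 96-well plates. Endpoint: linear interpolation; highest concentration if not reached. Abbreviation: GI50, concentration required for 50% inhibition of growth.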 Calls of active or inactive are those of the source. Cut-off read from the data, not from the text of the source: active = GI50 up to about 1.1 µM and inactive = higher.

Test systems include M14; IGROV-1; A549; SF-295; U-251; SN12C; OVCAR-4; K562; TK-10; OVCAR-8; UACC-62; EKVX; SK-MEL-2; HOP-62; HCT-15; SR; NCI-H460; SF-268; RPMI-8226.
Assay in all cases: inhibition of tumour cell growth, NCI panel, 48 h

With `O=c1c2ccccc2n2n1CC(O)C2` (stereo unspecified), the GI50 in the assay with M14, in the assay with IGROV-1, in the assay on A549, in the assay with SF-295, with U-251 and in the assay on SN12C was > 100 µM (inactive) each time. The GI50 in the assay with OVCAR-4 is > 100 µM (inactive); with K562, > 100 µM (inactive); with TK-10, > 100 µM (inactive); in the assay on OVCAR-8, > 100 µM (inactive); in the assay on UACC-62, 0.641 µM (active); in the assay with EKVX it was > 100 µM (inactive). In addition, the GI50 was > 100 µM (inactive) with SK-MEL-2; > 100 µM (inactive) in the assay on HOP-62; greater than 100 µM with HCT-15; > 100 µM (inactive) in the assay on SR; > 100 µM (inactive) in the assay on NCI-H460; > 100 µM (inactive) in the assay on SF-268. In the assay on RPMI-8226, the GI50 was > 100 µM (inactive).
In the case of `COc1ccc(C)cc1N1C(=O)C2ON(Cc3ccc(CC(N)=O)cc3)C(c3c4ccccc4c(Cl)c4ccccc34)C2C1=O` (stereo unspecified), the GI50 is 19.3 µM (inactive) with M14; 33.2 µM (inactive) in the assay on IGROV-1; 55.2 µM (inactive) in the assay with A549; 22.9 µM (inactive) with SF-295; 24.3 µM (inactive) with U-251; 20.2 µM (inactive) with SN12C. The GI50 in the assay on OVCAR-4 was 24.3 µM (inactive); in the assay with K562, 28.8 µM (inactive); with TK-10, 23.1 µM (inactive); in the assay on OVCAR-8, 27.6 µM (inactive); with UACC-62, 19.7 µM (inactive); with EKVX it was 28.2 µM (inactive). Also, the GI50 in the assay on SK-MEL-2 is 21.1 µM (inactive); in the assay with HOP-62 it was 27.7 µM (inactive); with HCT-15, 22.4 µM; in the assay on SR, 12.8 µM (inactive); with NCI-H460 it was 18.4 µM (inactive); with SF-268, 26.5 µM (inactive).
Turning to `CC1=C(C)CC2C(=O)N(c3cc(C(C)(C)C)ccc3C(C)(C)C)C(=O)C2C1` (stereo unspecified), the GI50 in the assay with M14 was 52.1 µM (inactive); in the assay on IGROV-1 it was 61 µM (inactive); with A549, 69.5 µM (inactive); in the assay on SF-295, 48.2 µM (inactive); with U-251, 47.1 µM (inactive); in the assay on SN12C it was > 100 µM (inactive). Besides, the GI50 is > 100 µM (inactive) in the assay with OVCAR-4; > 100 µM (inactive) in the assay with K562; 66.1 µM (inactive) with TK-10; > 100 µM (inactive) in the assay with OVCAR-8; 14.5 µM (inactive) with UACC-62; > 100 µM (inactive) in the assay on EKVX. Besides, the GI50 in the assay on SK-MEL-2 is > 100 µM (inactive); in the assay with HOP-62 it was 26.2 µM (inactive); with HCT-15, greater than 100 µM; in the assay with SR, > 100 µM (inactive); with NCI-H460, > 100 µM (inactive); in the assay with SF-268 it was 7.91 µM (inactive). Moreover, the GI50 in the assay with RPMI-8226 was > 100 µM (inactive).
On to `Cc1ccc(-c2nc(N/N=C/c3ccc(O)cc3)c3ccccc3n2)cc1`, for which the GI50 was 5.02 µM (inactive) in the assay on M14; 8.47 µM (inactive) in the assay with IGROV-1; 6.14 µM (inactive) in the assay on A549; 17.9 µM (inactive) in the assay with SF-295; 19.8 µM (inactive) in the assay on U-251; 8.2 µM (inactive) in the assay with SN12C. For the same compound, the GI50 is 1.55 µM (inactive) with OVCAR-4; 22.8 µM (inactive) in the assay with K562; 24.3 µM (inactive) with TK-10; 22.9 µM (inactive) with OVCAR-8; 12.3 µM (inactive) in the assay with UACC-62; 3.98 µM (inactive) in the assay on EKVX. The GI50 is 15.8 µM (inactive) in the assay with SK-MEL-2; 31.9 µM (inactive) with HOP-62; 16.4 µM in the assay on HCT-15; 39.4 µM (inactive) in the assay with SR; 9.91 µM (inactive) in the assay on NCI-H460; 18.8 µM (inactive) in the assay with SF-268. The GI50 with RPMI-8226 was 40.7 µM (inactive).
As to `COc1ccc(C2c3cc4c(cc3OC(N3CCOCC3)C2C)OCO4)c(OC)c1OC` (stereo unspecified), the GI50 in the assay with M14 was 8.22 µM (inactive); with IGROV-1, 15.1 µM (inactive); in the assay on A549 it was 22.9 µM (inactive); with SF-295, 5.97 µM (inactive); with SN12C it was 26.3 µM (inactive); with K562, 4.34 µM (inactive). Besides, the GI50 in the assay with TK-10 is 15.5 µM (inactive); with OVCAR-8, 24.7 µM (inactive); in the assay with UACC-62 it was 13.5 µM (inactive); in the assay on EKVX it was 24.2 µM (inactive); in the assay on SK-MEL-2, 12.2 µM (inactive); with HOP-62, 26.9 µM (inactive). The GI50 with HCT-15 is 6.93 µM; in the assay on SR, 9.06 µM (inactive); in the assay with NCI-H460, 20.5 µM (inactive); in the assay on SF-268, 17.4 µM (inactive); in the assay with RPMI-8226, 13.2 µM (inactive).
With `CCOC(=O)C(NC(=O)OC(C)(C)C)C(=O)OCC`, the GI50 in the assay on IGROV-1, with A549, in the assay with U-251, with SN12C, in the assay on OVCAR-4 and in the assay on K562 was > 100 µM (inactive) each time. In addition, the GI50 in the assay on TK-10, in the assay on OVCAR-8, in the assay with UACC-62, in the assay on EKVX, with SK-MEL-2 and with HOP-62 was > 100 µM (inactive) each time. In addition, the GI50 is greater than 100 µM in the assay with HCT-15; > 100 µM (inactive) with SR; > 100 µM (inactive) with NCI-H460; > 100 µM (inactive) in the assay with SF-268; > 100 µM (inactive) in the assay on RPMI-8226.
Turning to `CCOC(=O)Nn1c(CC#N)nnc1Cc1ccccc1`, the GI50 in the assay on M14, in the assay with IGROV-1, in the assay on A549, in the assay with SF-295, in the assay with U-251 and in the assay with SN12C was > 100 µM (inactive) throughout. In addition, the GI50 in the assay on K562, with TK-10, in the assay with OVCAR-8, in the assay with UACC-62, in the assay on SK-MEL-2 and with HOP-62 was > 100 µM (inactive) each time. The GI50 in the assay on HCT-15 is greater than 100 µM; with SR it was > 100 µM (inactive); in the assay on NCI-H460, > 100 µM (inactive); in the assay with SF-268, > 100 µM (inactive); in the assay with RPMI-8226 it was > 100 µM (inactive).
Consider `O=C(O/C(=C(/N=N/c1ccccc1)c1ccccc1)c1ccccc1)c1ccccc1`, for which the GI50 in the assay with IGROV-1, in the assay with A549, in the assay with SF-295, in the assay on U-251, with SN12C and with OVCAR-4 was > 100 µM (inactive) in each case. Moreover, the GI50 is 48.1 µM (inactive) in the assay on K562; > 100 µM (inactive) in the assay with TK-10; > 100 µM (inactive) with OVCAR-8; > 100 µM (inactive) in the assay with UACC-62; > 100 µM (inactive) in the assay with EKVX; > 100 µM (inactive) in the assay with SK-MEL-2. Besides, the GI50 in the assay on HCT-15 was greater than 100 µM; with SR, > 100 µM (inactive); in the assay on NCI-H460 it was > 100 µM (inactive); in the assay on RPMI-8226, > 100 µM (inactive).
On to `CCOC(=O)c1nc2ccc(Cl)cc2c2c1Cc1ccccc1-2`, for which the GI50 in the assay on M14, in the assay with IGROV-1, in the assay on A549, in the assay with SF-295, with U-251 and with SN12C was > 100 µM (inactive) throughout. For the same compound, the GI50 with OVCAR-4, in the assay on K562, in the assay with TK-10, in the assay with OVCAR-8, with UACC-62 and in the assay with EKVX was > 100 µM (inactive) throughout. The GI50 in the assay on SK-MEL-2 is > 100 µM (inactive); in the assay with HOP-62, > 100 µM (inactive); in the assay on HCT-15, greater than 100 µM; with SR it was > 100 µM (inactive); with SF-268 it was > 100 µM (inactive); in the assay on RPMI-8226 it was > 100 µM (inactive).
In the case of `O=C(N/C(=C\c1cc(Cl)ccc1Cl)c1nc2ccccc2[nH]1)c1ccccc1`, the GI50 in the assay on M14 was 27.9 µM (inactive); with IGROV-1, > 10 µM (inactive); in the assay with A549, 35.1 µM (inactive); with SF-295, 24.5 µM (inactive); in the assay with U-251, 29.7 µM (inactive); in the assay on SN12C, 32.1 µM (inactive). The GI50 is 30.1 µM (inactive) with OVCAR-4; 24.4 µM (inactive) with K562; 93.3 µM (inactive) in the assay with TK-10; 19.2 µM (inactive) in the assay on OVCAR-8; 38.9 µM (inactive) in the assay on UACC-62; 28.5 µM (inactive) in the assay on EKVX. Moreover, the GI50 is 52 µM (inactive) with SK-MEL-2, 24 µM with HCT-15, 24.4 µM (inactive) with SR and 36.1 µM (inactive) with SF-268.
Regarding `CN(CCN(C)C(=S)NN)C(=S)NN`, the GI50 with M14, with IGROV-1, in the assay with A549, with SF-295, in the assay with U-251 and in the assay with SN12C was > 100 µM (inactive) throughout. The GI50 with OVCAR-4, in the assay on UACC-62, with EKVX, in the assay on SK-MEL-2, in the assay with HOP-62 and in the assay on SR was > 100 µM (inactive) in each case. Also, the GI50 in the assay with NCI-H460, in the assay on SF-268 and in the assay on RPMI-8226 was > 100 µM (inactive) throughout.
